# Source: US20230303572A1, “18-MC SALT FORMS” (Mind Medicine, Inc., priority 2022, published 2023)
# Counter-ions that a name gives are not always drawn. Marks after values point to notes of the source that are not given here.
# Legend:
# Type in all cases: physicochemical
# [1] = Heating experiments and VT-XRPD (N2 drying, heating, cooling back): form change; details: for Form change after treatment: Heat to 165~170° C. under N2, XRPD form; for Form after heating: solid form by XRPD after heating, cells marked *, # have footnotes that are not shown; for form change after N2 drying (VT-XRPD): N2-drying for 20 min at 30° C.
# Text: (§1) For XRPD analysis, a PANalytical Empyrean and X′ Pert3 X-ray powder diffract meter was used.
# [2] = Approximate solubility estimated by stepwise solvent addition (RT and 50° C.)
# Method: Approximate solubility values of sulfate Type A (824511-04-A) were estimated in 10 solvents to guide the solvent selection in the polymorph screening, with results summarized in TABLE 16B.
# Approximate solubility of oxalate Type B (824511-04-C) was estimated in 10 solvents to guide the solvent selection in polymorph screening of oxalate, and the results were summarized in TABLE 19C.
# Procedure: weigh ~2 mg solids into each 3-mL glass vial, add in corresponding solvent stepwise and sonicate or oscillate to see if solids dissolved completely. Stop adding solvent till the solids dissolves or total volume reaches 1.0 mL. Calculate the approximate solubility based on solvent volume.
# The approximate solubility of mesylate Type A (824511-23-B) was estimated in 10 solvents to guide the solvent selection in polymorph screening of the mesylate, with results summarized in TABLE 22C.
# Approximate solubility of HBr salt Type A (824511-29-B) was estimated in 10 solvents to guide the solvent selection in polymorph screening of HBr salt, with data summarized in TABLE 25B.
# Approximate solubility of tosylate Type B (824511-23-A-0628) was estimated in 40 solvents to guide the solvent selection in polymorph screening of tosylate, with data summarized in TABLE 27B.
# Approximate solubility of besylate Type B (824511-44-C2) was estimated in 38 solvents to guide the solvent selection in polymorph screening of besylate, with results shown in TABLE 31.
# [3] = Physical form stability on storage at RT, air drying or exposure to ambient conditions (XRPD)
# Text: as §1
# [4] = approximate solubility in CHCl3 at RT
# [5] = approximate solubility in EtOAc at RT
# [6] = approximate solubility in H2O at RT
# [7] = approximate solubility in MeOH at RT
# [8] = approximate solubility in THF at RT
# [9] = approximate solubility in n-Heptane at RT
# [10] = heating to 80° C. and cooling back to RT
smiles,measurement,setting,value
"COCC[C@H]1CC2CN3CCc4c([nH]c5ccccc45)[C@](C(=O)OC)(C2)[C@H]13 [HBr salt Type A, 18-methoxycoronaridine]",form change after drying or heating (VT-XRPD),[1]; drying or heating under N2 to higher temperatures and cooling back to RT,no form change
same,Solubility (mg/mL),[2]; approximate solubility in ACN at RT,S<2.1 * mg/mL
same,Solubility (mg/mL),[2]; [4],S<2.1 * mg/mL
same,Solubility (mg/mL),[2]; approximate solubility in DCM at RT,S<2.1 * mg/mL
same,Solubility (mg/mL),[2]; [5],S<2.1 mg/mL
same,Solubility (mg/mL),[2]; [6],S<2.1 mg/mL
same,Solubility (mg/mL),[2]; [7],S>42.0 mg/mL
same,Solubility (mg/mL),[2]; [8],S<2.0 mg/mL
same,Solubility (mg/mL),[2]; [9],S<2.0 mg/mL
"COCC[C@H]1CC2CN3CCc4c([nH]c5ccccc45)[C@](C(=O)OC)(C2)[C@H]13 [HBr salt Type B, 18-methoxycoronaridine]","form conversion, summary statement",[3]; after storage or heating experiments,could convert to HBr salt Type A
same,Form change on storage,[3]; storage at RT for ~20 days,*: Partially converted to HBr salt Type A after storage at RT for ~20 days.
same,form change after storage (XRPD),[3]; storage at RT for ~20 days,partially converted to HBr salt anhydrate Type A
"COCC[C@H]1CC2CN3CCc4c([nH]c5ccccc45)[C@](C(=O)OC)(C2)[C@H]13 [HCl salt Type A+L, 18-methoxycoronaridine]",form change after storage (XRPD),[3]; storage at RT for ~22 days,converted to HCl salt Type A completely
"COCC[C@H]1CC2CN3CCc4c([nH]c5ccccc45)[C@](C(=O)OC)(C2)[C@H]13 [HCl salt Type A+N, 18-methoxycoronaridine]",form change after storage (XRPD),[3]; storage at RT for ~21 days,converted to HCl salt Type A completely
"COCC[C@H]1CC2CN3CCc4c([nH]c5ccccc45)[C@](C(=O)OC)(C2)[C@H]13 [HCl salt Type A+O, 18-methoxycoronaridine]",form change after storage (XRPD),[3]; storage at RT for ~19 days,converted to HCl salt Type A completely
"COCC[C@H]1CC2CN3CCc4c([nH]c5ccccc45)[C@](C(=O)OC)(C2)[C@H]13 [HCl salt Type F, 18-methoxycoronaridine]",Form change after treatment,[1],HCl salt Type K*
same,Form after heating,[1],HCl salt Type K^#
"COCC[C@H]1CC2CN3CCc4c([nH]c5ccccc45)[C@](C(=O)OC)(C2)[C@H]13 [HCl salt Type H, 18-methoxycoronaridine]",Form change after treatment,[1],Freebase Type A+extra peak*
same,Form after heating,[1],Freebase Type A+extra peak
"COCC[C@H]1CC2CN3CCc4c([nH]c5ccccc45)[C@](C(=O)OC)(C2)[C@H]13 [HCl salt Type K, 18-methoxycoronaridine]",Form change after treatment,"[3]; Exposure to ambient conditions (~50%RH), XRPD form",HCl salt Type F^#
"COCC[C@H]1CC2CN3CCc4c([nH]c5ccccc45)[C@](C(=O)OC)(C2)[C@H]13 [HCl salt Type N, 18-methoxycoronaridine]",Form after treatment,"[3]; RT storage, metastable forms",HCl salt Type A^#
same,"form conversion, summary statement","[3]; after air drying or RT storage, duration not stated",converted to HCl salt Type A
"COCC[C@H]1CC2CN3CCc4c([nH]c5ccccc45)[C@](C(=O)OC)(C2)[C@H]13 [besylate Type A, 18-methoxycoronaridine]",form change after heating (XRPD/VT-XRPD),[1]; heating to 100° C.,a new form was observed and assigned as besylate Type C
COCCC1CC2CN3CCc4c([nH]c5ccccc45)C(C(=O)OC)(C2)C13.O=S(=O)(O)c1ccccc1 (stereo not drawn) [besylate Type B (824511-44-C2)],Approximate solubility,"[2]; 50° C., solvent 2-MeTHF, *: little solids in the vial",S<1.9* mg/mL
same,Approximate solubility,"[2]; 50° C., solvent Toluene",S<1.9 mg/mL
same,Approximate solubility,"[2]; 50° C., solvent n-Heptane",S<2.0 mg/mL
same,Approximate solubility,"[2]; RT, solvent 2-MeTHF",S<1.9 mg/mL
same,Approximate solubility,"[2]; RT, solvent ACN",S>40.0 mg/mL
same,Approximate solubility,"[2]; RT, solvent ACN/H2O (1:2, aw 0.9), *: little solids in the vial",S<1.9* mg/mL
same,Approximate solubility,"[2]; RT, solvent CHCl3",S>40.0 mg/mL
same,Approximate solubility,"[2]; RT, solvent DCM",S>40.0 mg/mL
same,Approximate solubility,"[2]; RT, solvent EtOAc",S<2.0 mg/mL
same,Approximate solubility,"[2]; RT, solvent H2O",S<2.0 mg/mL
same,Approximate solubility,"[2]; RT, solvent IPA/H2O (847:153, aw 0.8)",S>40.0 mg/mL
same,Approximate solubility,"[2]; RT, solvent MeOH",S>44.0 mg/mL
same,Approximate solubility,"[2]; RT, solvent THF/H2O (87:13, aW 0.8)",S>42.0 mg/mL
same,Approximate solubility,"[2]; RT, solvent THF/H2O (981:19, aw 0.2)",S>40.0 mg/mL
same,Approximate solubility,"[2]; RT, solvent n-Heptane",S<2.0 mg/mL
"COCC[C@H]1CC2CN3CCc4c([nH]c5ccccc45)[C@](C(=O)OC)(C2)[C@H]13 [besylate Type B, 18-methoxycoronaridine]",form change after N2 drying (VT-XRPD),[1],no obvious form change
same,form change after heating (XRPD/VT-XRPD),[1]; heating to 100° C.,no obvious form change
"COCC[C@H]1CC2CN3CCc4c([nH]c5ccccc45)[C@](C(=O)OC)(C2)[C@H]13 [mesylate Type A, 18-methoxycoronaridine]",form change after N2 drying (VT-XRPD),[1],no form change
same,form change after heating (XRPD/VT-XRPD),[1]; heating to 100° C.,no obvious form change
same,Solubility (mg/mL),[2]; approximate solubility in Acetone at RT,S<2.3 mg/mL
same,Solubility (mg/mL),[2]; [4],S>42.0* mg/mL
same,Solubility (mg/mL),[2]; [5],S<2.2 mg/mL
same,Solubility (mg/mL),[2]; [6],S>42.0* mg/mL
same,Solubility (mg/mL),[2]; [7],S>40.0 mg/mL
same,Solubility (mg/mL),[2]; [8],S<2.0 mg/mL
same,Solubility (mg/mL),[2]; [9],S<2.0 mg/mL
"COCC[C@H]1CC2CN3CCc4c([nH]c5ccccc45)[C@](C(=O)OC)(C2)[C@H]13 [oxalate Type B, 18-methoxycoronaridine]",Solubility (mg/mL),[2]; [5],S<1.8 mg/mL
same,Solubility (mg/mL),[2]; [6],S>38.0 mg/mL
same,Solubility (mg/mL),[2]; [7],S>44.0 mg/mL
same,Solubility (mg/mL),[2]; [9],S<2.1 mg/mL
"COCC[C@H]1CC2CN3CCc4c([nH]c5ccccc45)[C@](C(=O)OC)(C2)[C@H]13 [sulfate Type A, 18-methoxycoronaridine]",form change after N2 drying (VT-XRPD),[1],no obvious form change
same,form change after heating (XRPD/VT-XRPD),[1]; heating to 120° C.,no obvious form change
same,Solubility (mg/mL),"[2]; CHCl3, RT, approximate",S<1.9 mg/mL
same,Solubility (mg/mL),"[2]; DCM, RT, approximate",S<2.1 mg/mL
same,Solubility (mg/mL),"[2]; EtOAc, RT, approximate",S<2.0 mg/mL
same,Solubility (mg/mL),"[2]; MeOH, RT, approximate",S>44.0 mg/mL
same,Solubility (mg/mL),"[2]; THF, RT, approximate",S<1.9 mg/mL
same,Solubility (mg/mL),"[2]; Toluene, RT, approximate",S<2.2 mg/mL
same,Solubility (mg/mL),"[2]; n-Heptane, RT, approximate",S<1.8 mg/mL
"COCC[C@H]1CC2CN3CCc4c([nH]c5ccccc45)[C@](C(=O)OC)(C2)[C@H]13 [sulfate Type D, 18-methoxycoronaridine]",form change after N2 drying (VT-XRPD),[1],a new form was observed and assigned as sulfate Type F
"COCC[C@H]1CC2CN3CCc4c([nH]c5ccccc45)[C@](C(=O)OC)(C2)[C@H]13 [sulfate Type E, 18-methoxycoronaridine]",form change after heating (XRPD/VT-XRPD),[1]; heating to 100° C.,no form change
"COCC[C@H]1CC2CN3CCc4c([nH]c5ccccc45)[C@](C(=O)OC)(C2)[C@H]13 [tosylate Type B, 18-methoxycoronaridine]",Approximate solubility,"[2]; 50° C., 1,4-Dioxane/n-heptane (1:2) v:v",S<1.9 mg/mL
same,Approximate solubility,"[2]; 50° C., IPAc",S<2.2 mg/mL
same,Approximate solubility,"[2]; 50° C., MTBE",S<2.1 mg/mL
same,Approximate solubility,"[2]; 50° C., Toluene",S<1.9 mg/mL
same,Approximate solubility,"[2]; 50° C., n-Heptane",S<2.0 mg/mL
same,Approximate solubility,"[2]; RT, 2-MeTHF",S<2.1 mg/mL
same,Approximate solubility,"[2]; RT, ACN/toluene (4:1) v:v",S>42.0 mg/mL
same,Approximate solubility,"[2]; RT, Acetone/n-heptane (4:1) v:v",S<2.0 mg/mL
same,Approximate solubility,"[2]; RT, CHCl3",S>40.0 mg/mL
same,Approximate solubility,"[2]; RT, CHCl3/toluene (1:4) v:v",S<1.9 mg/mL
same,Approximate solubility,"[2]; RT, EtOAc, little solid in the vial",S<2.1^& mg/mL
same,Approximate solubility,"[2]; RT, EtOH",S>40.0 mg/mL
same,Approximate solubility,"[2]; RT, EtOH/n-hexane (3:1) v:v",S>42.0 mg/mL
same,Approximate solubility,"[2]; RT, H2O",S<2.0 mg/mL
same,Approximate solubility,"[2]; RT, MeOH",S>44.0 mg/mL
same,Approximate solubility,"[2]; RT, THF/H2O (87:13) v:v",S>42.0 mg/mL
same,Approximate solubility,"[2]; RT, n-Heptane",S<2.0 mg/mL
"COCC[C@H]1CC2CN3CCc4c([nH]c5ccccc45)[C@](C(=O)OC)(C2)[C@H]13 [tosylate Type E, 18-methoxycoronaridine]",form change after heating (XRPD),[1]; [10],no form change
same,form change after heating (XRPD),[1]; heating to 101° C. and cooling back to RT,a sample with weak crystallinity and similar to tosylate Type B was obtained
"COCC[C@H]1CC2CN3CCc4c([nH]c5ccccc45)[C@](C(=O)OC)(C2)[C@H]13 [tosylate Type F, 18-methoxycoronaridine]",form change after heating (XRPD),[1]; heating to 90° C.,form change to tosylate Type B
"COCC[C@H]1CC2CN3CCc4c([nH]c5ccccc45)[C@](C(=O)OC)(C2)[C@H]13 [tosylate Type G, 18-methoxycoronaridine]",form change after heating (XRPD),[1]; [10],no form change
same,form change after heating (XRPD),[1]; heating to 90° C.,crystallinity of the sample decreased significantly
same,form change after heating (XRPD/VT-XRPD),[1]; heating to 100° C.,amorphous was obtained
